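1) Cells in 96-well plates. 2) Compound, 48 h, 5 concentrations. 3) Linear interpolation between surrounding doses. 4) Unreached endpoint = highest concentration. Abbreviation: GI50, concentration required for 50% inhibition of growth.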 Activity calls are given as the source filed them. Rule as the data show it: active = GI50 up to about 1.1 µM and inactive = higher.
Columns and labels:
Assay in all cases: DTP human tumour cell line panel, 48 h
786-0 = system: 786-0
A498 = system: A498
A549 = system: A549
ACHN = system: ACHN
BT-549 = system: BT-549
CAKI-1 = system: CAKI-1
COLO 205 = system: COLO 205
DU-145 = system: DU-145
EKVX = system: EKVX
HCC 2998 = system: HCC 2998
HCT-116 = system: HCT-116
HCT-15 = system: HCT-15
HL-60 = system: HL-60
HOP-62 = system: HOP-62
HOP-92 = system: HOP-92
HT-29 = system: HT-29
Hs-578T = system: Hs-578T
IGROV-1 = system: IGROV-1
K562 = system: K562
KM12 = system: KM12
LOX IMVI = system: LOX IMVI
M14 = system: M14
MCF7 = system: MCF7
MDA-MB-231 = system: MDA-MB-231
MDA-MB-435 = system: MDA-MB-435
MDA-N = system: MDA-N
MOLT-4 = system: MOLT-4
Malme-3M = system: Malme-3M
NCI-H226 = system: NCI-H226
NCI-H23 = system: NCI-H23
NCI-H460 = system: NCI-H460
NCI-H522 = system: NCI-H522
NCI/ADR-RES = system: NCI/ADR-RES
OVCAR-3 = system: OVCAR-3
OVCAR-4 = system: OVCAR-4
OVCAR-5 = system: OVCAR-5
OVCAR-8 = system: OVCAR-8
PC-3 = system: PC-3
RPMI-8226 = system: RPMI-8226
RXF 393 = system: RXF 393
SF-268 = system: SF-268
SF-295 = system: SF-295
SF-539 = system: SF-539
SK-MEL-28 = system: SK-MEL-28
SK-MEL-2 = system: SK-MEL-2
SK-MEL-5 = system: SK-MEL-5
SK-OV-3 = system: SK-OV-3
SN12C = system: SN12C
SNB-19 = system: SNB-19
SNB-75 = system: SNB-75
SR = system: SR
SW-620 = system: SW-620
T47D = system: T47D
TK-10 = system: TK-10
U-251 = system: U-251
UACC-257 = system: UACC-257
UACC-62 = system: UACC-62
UO-31 = system: UO-31
CCRF-CEM = system: CCRF-CEM

## COC(=O)CCC(C)C1CCC2C3CCC4CC5CCC4(C)C3(O5)C(Br)C(Br)C12C (centres undefined)
786-0
  GI50: > 100 µM (inactive)
A498
  GI50: > 100 µM (inactive)
A549
  GI50: > 100 µM (inactive)
ACHN
  GI50: > 100 µM (inactive)
BT-549
  GI50: > 100 µM (inactive)
CAKI-1
  GI50: > 100 µM (inactive)
COLO 205
  GI50: > 100 µM (inactive)
DU-145
  GI50: > 100 µM (inactive)
EKVX
  GI50: > 100 µM (inactive)
HCC 2998
  GI50: > 100 µM (inactive)
HCT-116
  GI50: 78.9 µM (inactive)
HCT-15
  GI50: > 100 µM
HL-60
  GI50: 2.55 µM (inactive)
HOP-62
  GI50: > 100 µM (inactive)
HOP-92
  GI50: > 100 µM (inactive)
HT-29
  GI50: 56.2 µM (inactive)
Hs-578T
  GI50: > 100 µM (inactive)
IGROV-1
  GI50: > 100 µM (inactive)
K562
  GI50: > 100 µM (inactive)
KM12
  GI50: > 100 µM (inactive)
LOX IMVI
  GI50: > 100 µM (inactive)
M14
  GI50: > 100 µM (inactive)
MCF7
  GI50: > 100 µM (inactive)
MDA-MB-231
  GI50: > 100 µM (inactive)
MDA-MB-435
  GI50: > 100 µM (inactive)
MDA-N
  GI50: > 100 µM (inactive)
MOLT-4
  GI50: > 100 µM (inactive)
Malme-3M
  GI50: > 100 µM (inactive)
NCI-H226
  GI50: 45.4 µM (inactive)
NCI-H23
  GI50: > 100 µM (inactive)
NCI-H460
  GI50: > 100 µM (inactive)
NCI-H522
  GI50: 48.2 µM (inactive)
NCI/ADR-RES
  GI50: > 100 µM (inactive)
OVCAR-3
  GI50: > 100 µM (inactive)
OVCAR-4
  GI50: > 100 µM (inactive)
OVCAR-5
  GI50: > 100 µM (inactive)
OVCAR-8
  GI50: > 100 µM (inactive)
PC-3
  GI50: > 100 µM (inactive)
RPMI-8226
  GI50: 67.6 µM (inactive)
RXF 393
  GI50: > 100 µM (inactive)
SF-268
  GI50: > 100 µM (inactive)
SF-295
  GI50: > 100 µM (inactive)
SF-539
  GI50: 85.1 µM (inactive)
SK-MEL-28
  GI50: > 100 µM (inactive)
SK-MEL-2
  GI50: > 100 µM (inactive)
SK-MEL-5
  GI50: 72.9 µM (inactive)
SK-OV-3
  GI50: > 100 µM (inactive)
SN12C
  GI50: > 100 µM (inactive)
SNB-19
  GI50: > 100 µM (inactive)
SNB-75
  GI50: > 100 µM (inactive)
SR
  GI50: > 100 µM (inactive)
SW-620
  GI50: > 100 µM (inactive)
T47D
  GI50: 61.9 µM (inactive)
TK-10
  GI50: > 100 µM (inactive)
U-251
  GI50: > 100 µM (inactive)
UACC-257
  GI50: > 100 µM (inactive)
UACC-62
  GI50: > 100 µM (inactive)
UO-31
  GI50: > 100 µM (inactive)

## C[C@@H]1CCC2[C@@H](C)[C@@H](O[C@H]3O[C@@H]4O[C@@]5(C)CCC6[C@H](C)CCC([C@H]3C)[C@]64OO5)O[C@@H]3O[C@@]4(C)CCC1[C@@]23OO4 (some centres undefined)
786-0
  GI50: 21.9 µM (inactive)
A498
  GI50: > 25 µM (inactive)
A549
  GI50: 18.6 µM (inactive)
ACHN
  GI50: 3.27 µM (inactive)
BT-549
  GI50: 1.23 µM (inactive)
CAKI-1
  GI50: > 25 µM (inactive)
CCRF-CEM
  GI50: 7.46 µM (inactive)
COLO 205
  GI50: 1.17 µM (inactive)
DU-145
  GI50: > 25 µM (inactive)
EKVX
  GI50: 2.07 µM (inactive)
HCC 2998
  GI50: > 25 µM (inactive)
HCT-116
  GI50: 0.659 µM (active)
HCT-15
  GI50: 0.733 µM
HL-60
  GI50: 0.5 µM (active)
HOP-62
  GI50: > 25 µM (inactive)
HOP-92
  GI50: 3.63 µM (inactive)
HT-29
  GI50: 1.31 µM (inactive)
Hs-578T
  GI50: 7.05 µM (inactive)
IGROV-1
  GI50: > 25 µM (inactive)
K562
  GI50: 1.04 µM (active)
KM12
  GI50: 0.865 µM (active)
LOX IMVI
  GI50: 0.973 µM (active)
M14
  GI50: > 25 µM (inactive)
MCF7
  GI50: 1.51 µM (inactive)
MDA-MB-231
  GI50: > 25 µM (inactive)
MDA-MB-435
  GI50: 6.97 µM (inactive)
MDA-N
  GI50: 2.65 µM (inactive)
MOLT-4
  GI50: 2.17 µM (inactive)
NCI-H226
  GI50: > 15.6 µM (inactive)
NCI-H23
  GI50: 1.1 µM (active)
NCI-H460
  GI50: > 25 µM (inactive)
NCI-H522
  GI50: 0.861 µM (active)
NCI/ADR-RES
  GI50: 1.45 µM (inactive)
OVCAR-3
  GI50: 7.45 µM (inactive)
OVCAR-4
  GI50: 7.62 µM (inactive)
OVCAR-5
  GI50: > 25 µM (inactive)
OVCAR-8
  GI50: 1.19 µM (inactive)
PC-3
  GI50: 0.18 µM (active)
RPMI-8226
  GI50: 0.586 µM (active)
RXF 393
  GI50: > 12.6 µM (inactive)
SF-268
  GI50: > 25 µM (inactive)
SF-295
  GI50: > 16.7 µM (inactive)
SF-539
  GI50: > 5.51 µM (inactive)
SK-MEL-28
  GI50: > 25 µM (inactive)
SK-MEL-2
  GI50: 16 µM (inactive)
SK-MEL-5
  GI50: 3.44 µM (inactive)
SK-OV-3
  GI50: > 25 µM (inactive)
SN12C
  GI50: 16.7 µM (inactive)
SNB-19
  GI50: > 25 µM (inactive)
SNB-75
  GI50: > 10.8 µM (inactive)
SR
  GI50: 0.724 µM (active)
SW-620
  GI50: 1.16 µM (inactive)
T47D
  GI50: 1.17 µM (inactive)
TK-10
  GI50: > 20 µM (inactive)
U-251
  GI50: > 25 µM (inactive)
UACC-257
  GI50: > 25 µM (inactive)
UACC-62
  GI50: 1.99 µM (inactive)
UO-31
  GI50: 1.71 µM (inactive)

## O=C(/C=C/c1ccccc1)N1CCCCC1
786-0
  GI50: > 100 µM (inactive)
A498
  GI50: > 100 µM (inactive)
A549
  GI50: > 100 µM (inactive)
ACHN
  GI50: > 100 µM (inactive)
BT-549
  GI50: > 100 µM (inactive)
CAKI-1
  GI50: > 100 µM (inactive)
CCRF-CEM
  GI50: > 100 µM (inactive)
COLO 205
  GI50: > 100 µM (inactive)
DU-145
  GI50: > 100 µM (inactive)
EKVX
  GI50: > 100 µM (inactive)
HCC 2998
  GI50: > 100 µM (inactive)
HCT-116
  GI50: > 100 µM (inactive)
HCT-15
  GI50: > 100 µM
HL-60
  GI50: > 100 µM (inactive)
HOP-62
  GI50: > 100 µM (inactive)
HOP-92
  GI50: > 100 µM (inactive)
HT-29
  GI50: > 100 µM (inactive)
Hs-578T
  GI50: > 100 µM (inactive)
IGROV-1
  GI50: > 100 µM (inactive)
K562
  GI50: > 100 µM (inactive)
KM12
  GI50: > 100 µM (inactive)
LOX IMVI
  GI50: > 100 µM (inactive)
M14
  GI50: > 100 µM (inactive)
MCF7
  GI50: > 100 µM (inactive)
MDA-MB-231
  GI50: > 100 µM (inactive)
MDA-MB-435
  GI50: > 100 µM (inactive)
MDA-N
  GI50: > 100 µM (inactive)
MOLT-4
  GI50: > 100 µM (inactive)
NCI-H226
  GI50: > 100 µM (inactive)
NCI-H23
  GI50: > 100 µM (inactive)
NCI-H460
  GI50: > 100 µM (inactive)
NCI-H522
  GI50: > 100 µM (inactive)
NCI/ADR-RES
  GI50: > 100 µM (inactive)
OVCAR-3
  GI50: > 100 µM (inactive)
OVCAR-4
  GI50: > 100 µM (inactive)
OVCAR-5
  GI50: > 100 µM (inactive)
OVCAR-8
  GI50: > 100 µM (inactive)
PC-3
  GI50: > 100 µM (inactive)
RPMI-8226
  GI50: > 100 µM (inactive)
RXF 393
  GI50: > 100 µM (inactive)
SF-268
  GI50: > 100 µM (inactive)
SF-295
  GI50: > 100 µM (inactive)
SF-539
  GI50: > 100 µM (inactive)
SK-MEL-28
  GI50: > 100 µM (inactive)
SK-MEL-2
  GI50: > 100 µM (inactive)
SK-MEL-5
  GI50: > 100 µM (inactive)
SK-OV-3
  GI50: > 100 µM (inactive)
SN12C
  GI50: > 100 µM (inactive)
SNB-19
  GI50: > 100 µM (inactive)
SNB-75
  GI50: 15.2 µM (inactive)
SR
  GI50: > 100 µM (inactive)
SW-620
  GI50: > 100 µM (inactive)
T47D
  GI50: > 100 µM (inactive)
TK-10
  GI50: > 100 µM (inactive)
U-251
  GI50: > 100 µM (inactive)
UACC-257
  GI50: > 100 µM (inactive)
UACC-62
  GI50: > 100 µM (inactive)
UO-31
  GI50: > 100 µM (inactive)
